Measured values reported in patent publication US20050266088A1, “Formulation for fast dissolution of lipophilic compounds” (Rijksuniversiteit Groningen, priority 2002, published 2005).

Assay: Dissolution experiments on tablets (Prolabo dissolution apparatus)
Type: physicochemical
Details: for dissolution rate of the sugar matrix (Anthrone assay): tablets with diazepam, water, 37° C., 100 rpm
Experimental: After compaction the tablets were weighed and subsequently submitted to dissolution experiments.
Dissolution was performed on a Prolabo dissolution apparatus, Rowa Techniek B.V. All experiments were conducted at 37° C. in 1000 mL under constant stirring with 100 rpm. Tablets prepared from physical mixtures and solid dispersions were analysed in triplicate.
To determine the sugar concentrations the Anthrone assay was used. (Scott et al. 1953) Samples were taken at appropriate intervals during the dissolution. […] Due to the enthalpy of mixing, the sample was heated to its boiling point. The boiling mixture was then cooled to room temperature. After 45 minutes the sample was vortexed and […] of sample was analysed in the plate reader at 630 nm. […] In every Anthrone assay a calibration curve of the appropriate sugar in the appropriate medium was established.

SMILES | release of drug from physical mixture tablets | release of drug from solid dispersion tablets | dissolution rate of the sugar matrix (Anthrone assay)
CN1C(=O)CN=C(c2ccccc2)c2cc(Cl)ccc21 [diazepam, Diazepam] | fast compared to the solid dispersions | fast release | 
OC[C@H]1O[C@@](CO)(O[C@H]2O[C@H](CO)[C@@H](O)[C@H](O)[C@H]2O)[C@@H](O)[C@@H]1O [sucrose] |  |  | dissolve faster compared to the inulins
OC[C@H]1O[C@H](O[C@H]2O[C@H](CO)[C@@H](O)[C@H](O)[C@H]2O)[C@H](O)[C@@H](O)[C@@H]1O [trehalose] |  |  | dissolve faster compared to the inulins
